3 molecules from patent US20250066370A1, “BICYCLIC TRIAZINE DERIVATIVES FOR THE TREATMENT OF CANCER” (DEUTSCHES KREBSFORSCHUNGSZENTRUM, priority 2022, published 2025) can be followed below.

The subject of experiment [1] is CAL-120, human breast adenocarcinoma cells. The experiment can be described thus: Proliferation assay CAL-120 (crystal violet). In kind it is cell-based. The note with it: 96 h, CAL-120 parental cells, 4 days, median, read-out: Prolif-CAL-120, IC50 - [mol/l] (median). As for the experimental part: (§1) Human tumour cells were originally obtained from the American Type Culture Collection (ATCC), or from the Deutsche Sammlung von Mikroorganismen und Zellkulturen (DSMZ, German Collection of Microorganisms and Cell Cultures). Cultivated tumour cells (CAL-120, human breast adenocarcinoma cells, DSMZ ACC-459; MDA-MB-231, human breast cancer cells, ATCC HTB-26) were plated at a density of 4,000 cells/well in a 96-well multitier plate in 200 microL of their respective growth medium supplemented 10% fetal calf serum. After 24 hours, the cells of one plate (zero-point plate) were stained with crystal violet (see below), while the medium of the other plates was supplemented with the test substances in various concentrations (0 micromol/L, as well as in the range of 0.01-10 micromol/L; the final concentration of the solvent dimethyl sulfoxide was adjusted to 0.1%) using a Tecan HP D300 Digital Dispenser. The cells were incubated for 4 days in the presence of test substances. Cell proliferation was determined by staining the cells with crystal violet: the cells were fixed by adding 20 microL/measuring point of an 11% glutaric aldehyde solution for 15 minutes at room temperature. After three washing cycles of the fixed cells with water, the plates were dried at room temperature. The cells were stained by adding 100 microL/measuring point of a 0.1% crystal violet solution (pH 3.0). After three washing cycles of the stained cells with water, the plates were dried at room temperature. The dye was dissolved by adding 100 microL/measuring point of a 10% acetic acid solution. The extinction was determined by photometry at a wavelength of 595 nm. The change of cell number, in percent, was calculated by normalization of the measured values to the extinction values of the zero-point plate (=0%) and the extinction of the untreated (0 μM) cells (=100%). The IC50 values (inhibitory concentration at 50% of maximal effect) were determined by means of a 4 parameter fit.

Experiment [2] deals with BRCA1 mRNA expression in MDA-MB-231 cells. The experiment can be described thus: qRT-PCR assay: inhibition of BRCA1 mRNA expression in MDA-MB-231 cells. The format is cell-based. The settings on record: Homo sapiens, 24 h exposure, BRCA1 normalised to GAPDH, median, read-out: RTqPCR-MDA-MB-231, IC50 [mol/l], BRCA1 (median). As for the experimental part:
3. qRT-PCR Assay: BRCA1, ATR, MCL1 in MDA-MB-231, CAL-120
Tissue cultured human MDA-MB-231 human breast cancer cells were plated in 500 microL per well at 200,000 cells/well in a 24 well microtiter plate. After 24 h, the cells were exposed continuously for 24 h to test substances (substances were added with Tecan HP D300 Dispenser). RNA was prepared using Qiagen RNeasy MiniKit (#74106), RNA was quantified using a NanoDrop Equipment, and 600 nano grams of RNA was converted to cDNA using a SuperScript VILO kit (Thermofisher #11755050) followed by qPCR amplification. BRCA1 and ATR gene expression was measured by RT-qPCR and normalised to GAPDH housekeeping gene expression. qPCR primer sets have been purchased from Thermo Fisher Scientific/Applied Biosystems: BRCA1, #Hs 01556193; ATR. #Hs 00992123: GAPDH. #Hs 03929097.

In experiment [3] the target is CDK12 (Homo sapiens (Human), UniProt Q9NYV4). Kind of experiment: CDK12 nuclear protein level: immunofluorescence/high content analysis in CAL-120 cells. In kind it is cell-based. The note with it: 24 h, nuclear CDK12 staining intensity, median, read-out: CDK12 degradation IF, DC50 - [mol/l] (median). The method, then: In the context of the present invention, the term “DC50 CDK12” refers to the DC50 values obtained according to the assay described in this section (7) herein below, i.e. the DC50 values for the degradation of CDK12.
Chain of CDK12 (Q9NYV4 whole entry): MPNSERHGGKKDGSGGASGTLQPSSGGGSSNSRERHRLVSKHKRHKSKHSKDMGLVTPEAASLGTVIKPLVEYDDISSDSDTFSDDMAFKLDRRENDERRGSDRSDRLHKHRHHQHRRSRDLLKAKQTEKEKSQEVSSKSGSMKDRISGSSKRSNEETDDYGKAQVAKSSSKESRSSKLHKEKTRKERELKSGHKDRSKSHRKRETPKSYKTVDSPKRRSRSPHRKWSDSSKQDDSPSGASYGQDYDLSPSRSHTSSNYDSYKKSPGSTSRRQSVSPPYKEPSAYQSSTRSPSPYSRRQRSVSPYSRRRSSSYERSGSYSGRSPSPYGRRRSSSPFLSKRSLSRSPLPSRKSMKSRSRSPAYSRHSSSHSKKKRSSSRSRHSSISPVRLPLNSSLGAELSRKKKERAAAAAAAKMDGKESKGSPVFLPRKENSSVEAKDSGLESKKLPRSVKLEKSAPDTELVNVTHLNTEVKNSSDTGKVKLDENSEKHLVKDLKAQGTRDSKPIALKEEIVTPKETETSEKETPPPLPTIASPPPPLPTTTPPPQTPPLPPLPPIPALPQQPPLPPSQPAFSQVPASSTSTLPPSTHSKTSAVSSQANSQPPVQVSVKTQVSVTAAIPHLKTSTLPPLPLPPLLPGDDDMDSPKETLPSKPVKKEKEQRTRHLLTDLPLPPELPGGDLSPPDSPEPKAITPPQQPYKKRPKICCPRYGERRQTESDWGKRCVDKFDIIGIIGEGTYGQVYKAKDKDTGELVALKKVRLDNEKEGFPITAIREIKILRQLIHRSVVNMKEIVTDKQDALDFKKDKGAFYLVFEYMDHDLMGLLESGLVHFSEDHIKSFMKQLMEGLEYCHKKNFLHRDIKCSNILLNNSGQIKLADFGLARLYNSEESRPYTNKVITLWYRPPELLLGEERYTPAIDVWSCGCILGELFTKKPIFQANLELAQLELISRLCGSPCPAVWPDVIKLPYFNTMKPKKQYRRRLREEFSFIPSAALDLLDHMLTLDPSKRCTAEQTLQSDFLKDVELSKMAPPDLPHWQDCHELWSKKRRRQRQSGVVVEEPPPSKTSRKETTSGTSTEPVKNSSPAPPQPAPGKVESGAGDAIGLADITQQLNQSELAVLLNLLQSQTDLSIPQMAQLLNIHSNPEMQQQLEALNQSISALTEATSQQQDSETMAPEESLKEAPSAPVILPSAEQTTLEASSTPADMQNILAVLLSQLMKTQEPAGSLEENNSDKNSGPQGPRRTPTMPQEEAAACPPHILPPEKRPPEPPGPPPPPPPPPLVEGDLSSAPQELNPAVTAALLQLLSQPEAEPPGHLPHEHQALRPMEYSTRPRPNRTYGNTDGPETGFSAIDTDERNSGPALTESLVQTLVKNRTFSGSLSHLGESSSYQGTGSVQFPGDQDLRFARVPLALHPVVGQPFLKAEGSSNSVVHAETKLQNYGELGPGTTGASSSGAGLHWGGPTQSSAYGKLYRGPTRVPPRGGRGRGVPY
Chain of CDK12 (O75909 whole entry partner): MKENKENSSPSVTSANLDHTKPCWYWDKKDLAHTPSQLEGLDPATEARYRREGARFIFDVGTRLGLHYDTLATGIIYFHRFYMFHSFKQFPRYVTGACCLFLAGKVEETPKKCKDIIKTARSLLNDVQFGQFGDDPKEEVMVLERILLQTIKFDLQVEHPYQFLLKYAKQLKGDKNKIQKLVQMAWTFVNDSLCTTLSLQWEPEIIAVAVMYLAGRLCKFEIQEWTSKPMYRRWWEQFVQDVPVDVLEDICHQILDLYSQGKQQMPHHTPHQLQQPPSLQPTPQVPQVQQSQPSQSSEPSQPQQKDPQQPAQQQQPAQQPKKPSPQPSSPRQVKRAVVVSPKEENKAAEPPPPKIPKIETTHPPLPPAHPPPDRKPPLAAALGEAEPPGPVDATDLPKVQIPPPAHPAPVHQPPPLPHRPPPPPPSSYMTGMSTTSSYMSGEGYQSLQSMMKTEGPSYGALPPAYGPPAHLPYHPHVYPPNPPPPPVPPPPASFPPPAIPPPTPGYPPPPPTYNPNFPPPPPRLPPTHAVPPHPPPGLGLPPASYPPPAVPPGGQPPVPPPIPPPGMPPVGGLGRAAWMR
(§2) CAL-120 human breast cancer cells (DSMZ ACC 459) are seeded in 1536-well microtiter plates (800 cells per well) containing 50 nanoL of compounds in Dose-Response. Control wells received DMSO or Example 4. Plates are then incubated for 24 h at 37° C. in an humidified incubator and fixed with 4% PFA for 10 min. Then immunofluorescence (IF) against CDK12 (CellSignalling CDK12 Antibody #11973, rabbit, 1:100 dilution) is performed using standard IF protocols. Cells are then stained with Hoechst 33342 (Life Technologies, H-1399, 0.1 microg/ml) and imaged on an automated confocal microscopy system (e.g. Perkin Elmer Opera Phenix). Nuclear and cytoplasmic intensity as well as the nuclear/cytoplasmic intensity ratio is determined by automated image analysis using custom generated scripts (MetaXpress). Data is then transferred to Genedata Screener software, normalized to DMSO and control and DC50 values (degrading concentration to achieve 50% reduction of nuclear CDK12 staining intensity relative to controls) are reported.

For experiment [4], the system named is MDA-MB-231, human breast cancer cells. Kind of experiment: Proliferation assay MDA-MB-231 (crystal violet). The note with it: 96 h, MDA-MB-231 parental cells, 4 days, median, read-out: Prolif-MDA MB-231, IC50 - [mol/l] (median). In kind it is cell-based. The method, then: as §1
In experiment [5] the test system is CYCLIN K. Kind of experiment: CYCLIN K nuclear protein level: immunofluorescence/high content analysis in CAL-120 cells. In kind it is cell-based, human. The settings on record: 24 h, nuclear CCNK staining intensity, median, read-out: CYCLIN K degradation IF, DC50 - [mol/l] (median). The method, then:
as §2, with “CYCLIN K (ThermoFisher Scientific CCNK” for “CDK12 (CellSignalling CDK12”, “#PA5-85020,” for “#11973,”, “1:200” for “1:100”, “CCNK” for “CDK12”

Experiment [6] deals with CAL-120-CDK12d-res. Kind of experiment: Proliferation assay CDK12 degrader resistant CAL-120. The format is cell-based, human.
Source text: (§3) CDK12-degrader resistant cells were generated by propagation of CAL-120 human breast adenocarcinoma cells (DSMZ ACC-459) and MDA-MB-231 human breast cancer cells (ATCC HTB-26) in presence of increasing concentrations of the CDK12 degrader compound example 4 from WO 2021/116178. Initial concentrations of example 4 were 2.0E-08 M for CAL-120 cells and 4.6E-08 M for MDA-MB-231 cells, corresponding to ca. 2-fold the IC50 of inhibition of the cells in an proliferation assay. After the treated cells recovered and proliferated again the concentration of compound example 4 was increased to 3-fold IC50.
as §1, with “To determine the inhibitory effect of test compounds on proliferation of CAL-120-CDK12d-res, MDA-MB-231-CDK12d-res the” for “Human tumour”, “cells” for “cells were originally obtained from the American Type Culture Collection (ATCC), or from the Deutsche Sammlung von Mikroorganismen und Zellkulturen (DSMZ, German Collection of Microorganisms and Cell Cultures). Cultivated tumour cells (CAL-120, human breast adenocarcinoma cells, DSMZ ACC-459; MDA-MB-231, human breast cancer cells, ATCC HTB-26)”

For experiment [7], the system named is MDA-MB-231-CDK12d-res. Kind of experiment: Proliferation assay CDK12 degrader resistant MDA-MB-231. The format is cell-based, human.
Source text: as §3
as §1, with “To determine the inhibitory effect of test compounds on proliferation of CAL-120-CDK12d-res, MDA-MB-231-CDK12d-res the” for “Human tumour”, “cells” for “cells were originally obtained from the American Type Culture Collection (ATCC), or from the Deutsche Sammlung von Mikroorganismen und Zellkulturen (DSMZ, German Collection of Microorganisms and Cell Cultures). Cultivated tumour cells (CAL-120, human breast adenocarcinoma cells, DSMZ ACC-459; MDA-MB-231, human breast cancer cells, ATCC HTB-26)”

Where only a bound is given, the exact number is not on record here.

Turning to `COc1ccc(-c2cnc(CNc3nc(N4CCOCC4)nn4c(C(F)(F)F)cnc34)[nH]2)cc1` [Example 13, N-{[5-(4-methoxyphenyl)-1H-imidazol-2-yl]methyl}-2-(morpholin-4-yl)-7-(trifluoromethyl)imidazo[2,1-f][1,2,4]triazin-4-amine], the IC50 was determined as 29.2 nM in experiment [1], 57.1 nM in experiment [2] and 85.9 nM in experiment [4]. For the same molecule, the DC50 in experiment [3] turned out to be 120 nM.
`FC(F)(F)Oc1ccc(-c2nnc(CNc3nc(N4CCOCC4)nc4c(C(F)(F)F)cnn34)[nH]2)cn1` [Example 17, 2-(morpholin-4-yl)-N-({5-[6-(trifluoromethoxy)pyridin-3-yl]-4H-1,2,4-triazol-3-yl}methyl)-8-(trifluoromethyl)pyrazolo[1,5-a][1,3,5]triazin-4-amine]: the DC50 in experiment [5] and in experiment [3] was more than 1000 nM throughout. Moreover, the IC50 in experiment [1] came out at 88.1 nM; in experiment [6] (Homo sapiens, 96 h, CDK12 degrader resistant CAL-120 cells, 4 days, median, read-out: Prolif-CAL-120-CDK12d-res, IC50 - [mol/l] (median)) it was 134 nM; in experiment [7] (Homo sapiens, 96 h, CDK12 degrader resistant MDA-MB-231 cells, 4 days, median, read-out: Prolif-MDA MB-231-CDK12d-res, IC50 - [mol/] (median)), 156 nM; in experiment [4], 112 nM. In addition, the “Ratio (Prolif-CAL-120-CDK12d-res IC50 / Prolif-CAL-120 IC50)” value in experiment [6] (resistant versus parental CAL-120 cells) is listed as 1.5. Besides, the “Ratio (Prolif-MDA MB-231-CDK12d-res IC50 / Prolif-MDA MB-231 IC50)” value in experiment [7] (resistant versus parental MDA-MB-231 cells) is listed as 1.4.
With `FC(F)(F)c1ccc(-c2nnc(CNc3nc(N4CCOCC4)nc4c(C(F)(F)F)cnn34)[nH]2)cn1` [Example 16, 2-(morpholin-4-yl)-8-(trifluoromethyl)-N-({5-[6-(trifluoromethyl)pyridin-3-yl]-4H-1,2,4-triazol-3-yl}methyl)pyrazolo[1,5-a][1,3,5]triazin-4-amine], the IC50 in experiment [1] came out at 211 nM; in experiment [4], 179 nM. Also, in experiment [3], the DC50 is more than 1000 nM.
